Experimental data taken from PMC3793977, “High-Throughput Screening (HTS) and Hit Validation to Identify Small Molecule Inhibitors with Activity against NS3/4A proteases from Multiple Hepatitis C Virus Genotypes” (PLoS ONE, 2013).
Where two headings read alike, the source gives them in different places.

Key:
[1] = molecular target: T1, full-length NS3/4A enzyme complex (Hepatitis C virus genotype 1b, UniProt Q9WMX2); assay: Reversibility of inhibition by dilution; type: biochemical; conditions: dilution 25-fold and 50-fold
T1 construct: wild-type HCV NS3 (HCV polyprotein residues 1027–1657); His-tag (N); made in house
T1 sequence (Q9WMX2 1027-1657): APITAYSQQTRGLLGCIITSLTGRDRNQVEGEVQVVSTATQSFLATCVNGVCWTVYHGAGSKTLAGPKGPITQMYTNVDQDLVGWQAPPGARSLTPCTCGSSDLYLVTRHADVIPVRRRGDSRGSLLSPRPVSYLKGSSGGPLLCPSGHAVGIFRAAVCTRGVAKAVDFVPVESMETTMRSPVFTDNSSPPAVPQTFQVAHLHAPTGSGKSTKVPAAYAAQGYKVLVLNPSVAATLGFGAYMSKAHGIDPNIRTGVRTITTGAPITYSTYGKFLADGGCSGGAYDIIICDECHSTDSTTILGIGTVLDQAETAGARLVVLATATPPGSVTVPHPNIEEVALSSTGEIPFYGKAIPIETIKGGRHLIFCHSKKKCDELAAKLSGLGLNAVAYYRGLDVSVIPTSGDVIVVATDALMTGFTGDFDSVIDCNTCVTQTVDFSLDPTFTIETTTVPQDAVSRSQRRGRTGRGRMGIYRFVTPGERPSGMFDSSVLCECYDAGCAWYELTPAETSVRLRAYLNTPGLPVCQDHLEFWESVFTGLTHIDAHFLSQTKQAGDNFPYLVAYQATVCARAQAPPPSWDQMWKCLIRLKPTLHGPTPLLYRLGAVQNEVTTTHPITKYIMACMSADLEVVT
T1 sequence (Q9WMX2 1658-1711): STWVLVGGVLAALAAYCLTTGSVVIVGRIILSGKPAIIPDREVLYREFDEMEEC
Description: The reversibility of hit compounds was determined by dilution. The full-length NS3/4A enzyme complex was prepared as 20-fold (200 nM) of the assay concentration and was incubated with screened compounds at 20-fold IC50 value or slightly higher concentration for 30 minutes at room temperature in the same assay condition as the primary screen in a final volume of 100 µL. The concentration of enzyme and testing compound was optimized to yield at least 95% inhibition before dilution. The NS3/4A enzyme with the same volume of DMSO in place of each compound was also prepared as a control. NS3/4A activity was measured in the same way as the IC50 measurements. Then enzyme-inhibitor solution was diluted 25-fold and 50-fold and incubated for 30 minutes before measuring the percent recovery of the enzyme activity. All reversibility assays were done in triplicate.

[2] = molecular target: T2, full-length NS3/4A protease (genotype 1b) (Hepatitis C virus genotype 1b, UniProt Q9WMX2); assay: biochemical; conditions: purified full-length NS3/4A, genotype 1b wild-type
T2 construct: wild-type HCV NS3 (HCV polyprotein residues 1027–1657); His-tag (N); made in house
T2 sequence (Q9WMX2 1658-1711): as above
T2 sequence (Q9WMX2 1027-1657): as the sequence (Q9WMX2 1027-1657) above
Description: All assays were done in duplicate in black 384-well plates (Matrix Technologies). […] 200 nL of 10 mM compound (50 µM final concentrations) were then added and incubated for 5 minutes. Enzyme reactions were initiated with 10 µL of substrate Ac-DE-Dap(QXL520)-EE-Abu-ψ-[COO]AS-C(5-FAMsp)-NH2 (Anaspec) (1 µM final concentration), incubated for 6 minutes, and quenched by 10 µL of 10% SDS as a stop solution. Fluorescence intensity was monitored with a POLARstar OPTIMA microplate reader (BMG LABTECH). Each plate contained a total of 32 positive and 32 negative controls.
A series of compound concentrations (0 to 200 µM final concentration at 2-fold serial dilution) in 100% DMSO were prepared in a 384-well plate. 20 µL of enzyme solution was distributed to wells, and 0.5 µL of varying concentration of compounds were added and incubated for 5 minutes. The enzyme reaction was initiated by adding 5 µL of the substrate, and its activity was continuously monitored for 6 minutes. The IC50 values were calculated by fitting with the Hill equation (1), with OriginPro 8.5 (OriginLab, Inc.) where y is percent inhibition, x is inhibitor concentration, n is the slope of the concentration–response curve (Hill slope), and Vmax is maximal inhibition from two to four independent assays. [drawing 1] (1)

[3] = molecular target: T3, full-length NS3/4A (Hepatitis C virus genotype 1b, UniProt Q9WMX2); assay: SPR binding assay (dissociation equilibrium constant KD)
T3 construct: wild-type HCV NS3 (HCV polyprotein residues 1027–1657); His-tag (N); made in house
T3 sequence (Q9WMX2 1658-1711): as the sequence (Q9WMX2 1658-1711) above
T3 sequence (Q9WMX2 1027-1657): as the sequence (Q9WMX2 1027-1657) above
Description: The full-length NS3/4A enzyme was prepared in a storage buffer (50 mM HEPES, pH 7.6, 500 mM NaCl, 1 mM DTT, 0.2% Triton X-100, and 20% glycerol) and immobilized on a CM5 sensor chip using standard amine-coupling at 25°C with running buffer HBS-P (10 mM HEPES, 150 mM NaCl, 0.05% surfactant P-20, pH 7.4) using a Biacore T100 instrument. Flow channels 1 and 3 were activated by 1-ethyl-3-(3-dimethylaminopropyl) carbodiimide hydrocholoride (EDC)/N-hydroxy succinimide (NHS) mixture, and the activated surface was blocked by ethanolamine (pH 8.5) as controls. The NS3/4A enzyme was diluted in 10 mM sodium acetate (pH 5.0), and immobilized to flow channel 4 after sensor surface activation with EDC/NHS with a 7 min injection followed by ethanolamine blocking on unoccupied surface area. NS3/4A immobilization level was ∼8,500 response units (RU). An unrelated reference protein (92 kDa) was also immobilized to flow channel 2 as another control to be compared with NS3/4A (74.6 kDa). Fifteen initial hit compounds were prepared as 10 mM DMSO stock solutions. Compound solutions with a series of increasing concentrations (0–200 µM at 1.5-fold dilution) were applied to all four channels at a 10 µL/min flow rate at 25°C. Sensorgrams were analyzed using Biaevaluation software 2.0.3, and response unit difference (ΔRU) values at each concentration were measured during the equilibration phase. Data were either single referenced with a blank (enthanolamine) or double referenced with both blank and reference protein RU values. SigmaPlot 11.0 was used to fit the data to a single rectangular hyperbolic curve to determine KD values. The hyperbola function, y = ymax·x/(KD+x), was used to plot response units and corresponding concentration, where y is the response, ymax is the maximum response, and x is the compound concentration.

[4] = Microsomal stability assay; type: in vitro ADME, mouse; conditions: Balb/c, mouse, microsomes, pH 7.4
Description: A typical incubation mixture (100 µL total volume) for the metabolic stability studies contained 1 µM (final concentration) test compounds, 0.5 mg/mL microsomal protein (pooled Balb/c mouse liver microsomes prepared as described previously), 100 mM Tris-HCl buffer (pH7.4), and NADPH-generating system (5 mM isocitric acid, 0.2 unit/mL isocitric acid dehydrogenase, 5 mM magnesium chloride, 1 mM NADP^+). After pre-incubation at 37°C for 5 minutes, the reactions were started by addition of NADP^+ and further incubated for another 0, 5, 10, and 20 minutes. For control experiments, NADPH and/or liver microsomes were omitted from these incubations. The reactions were terminated by adding 100 µL ice-cold acetonitrile containing phenytoin (1 µM) as an internal standard and kept on ice for 30 minutes, followed by centrifugation at 16,100 g for 15 minutes to obtain the supernatant. Aliquots (5 µL) were then analyzed for substrate disappearance using liquid chromatography-tandem mass spectrometry (Agilent 1200 HPLC interfaced with Applied Biosystems Qtrap 3200) equipped with an electrospray ion source. Chromatographic separation was carried out with a Waters XTerra MS C18 column (2.1×50 mm, 3.5 µm; Agilent Technologies, Santa Clara, CA). The mobile phases consisted of solvent A (0.1% (v/v) aqueous formic acid) and solvent B (acetonitrile). A 250 µL/min flow rate gradient was developed for each test compound over 10 minutes (Table S2 in File S1). Mass detection of test substrates and internal standard were followed in a positive ion mode by examining multiple reaction monitoring (MRM) pairs. The spraying needle voltage was set at 5000 V. Curtain gas was set at 20; gas 1 and gas 2 were set at 45 and 50, respectively; collision assisted dissociation gas was at medium; and the source heater probe temperature was at 500°C. The test compounds were quantified by comparing the ratio of ion currents obtained for the substrates and an internal standards calibration curve. Data acquisition and processing were accomplished using Analyst software (version 1.4.1; Applied Biosystems). Apparent half-lives (t1/2) for the disappearance of parent drugs were calculated from the pseudo-first-order rate constants (ke) obtained by linear regression of plots of log [drug remaining] versus time (GraphPad Prism 5 software, La Jolla, CA) using the equation: t1/2 = 0.693/ke.

[5] = molecular target: T4, Chymotrypsin (Homo sapiens, UniProt P17538); assay: Inhibitor selectivity assay, chymotrypsin (fluorometric); type: biochemical
T4 construct: purchased Sigma
T4 sequence (P17538 19-263): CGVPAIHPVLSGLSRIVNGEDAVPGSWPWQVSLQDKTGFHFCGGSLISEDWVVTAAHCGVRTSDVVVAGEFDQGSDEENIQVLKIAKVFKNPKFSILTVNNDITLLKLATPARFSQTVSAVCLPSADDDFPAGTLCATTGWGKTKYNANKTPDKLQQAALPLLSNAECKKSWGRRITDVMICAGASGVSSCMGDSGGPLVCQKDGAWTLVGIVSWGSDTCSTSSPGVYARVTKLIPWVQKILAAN
Description: (§1) To test for selectivity, two human serine proteases, Trypsin and Chymotrypsin (Sigma), were tested with the top two hit compounds from HTS using a fluorometric assay. The fluorogenic substrates used in this study were N-benzoyl-L-Arg-7-amido-4-methylcoumarin (Sigma) and N-succinyl-Ala-Ala-Phe-7-amido-4- methylcoumarin (Sigma) for trypsin and chymotrypsin, respectively. All assays were performed in 384-well black plates (Corning) in a total volume of 24 µL of PBS (pH 7.4) buffer containing 0.01% Triton, 0.1 mg/mL BSA, and 2 mM GSH in triplicate. A series of compound concentrations (0 to 200 µM final concentration at 2-fold serial dilution) in 100% DMSO was prepared in a 384-well plate. 20 µL of trypsin (0.01 mg/mL) and chymotrypsin (0.0001 mg/mL) solutions were distributed into wells, and 0.5 µL of varying concentration of compounds were added and incubated for 10 minutes. The enzyme reaction was initiated by adding 5 µL of the substrate (50 µM final concentration), and fluorescence intensity was continuously monitored at excitation/emission wavelengths of 350 nm/460 nm for 10 minutes.

[6] = molecular target: T5, Trypsin (Homo sapiens, UniProt P07477); assay: Inhibitor selectivity assay, trypsin (fluorometric); type: biochemical
T5 construct: purchased Sigma
Description: as §1

SMILES	reversibility of inhibition [1]	IC50 ([2]; read-out: IC50 Full-length NS3/4A)	Kd ([3]; SPR, 25°C, single rectangular hyperbolic fit)	SPR binding to NS3/4A, double referenced ([3]; double referenced with blank and unrelated reference protein)	microsomal stability ([4]; 1 µM)	half-life at 1 µM [4]	inhibition at 100 µM ([5]; 100 µM compound, read-out: Chymotrypsin % Inh at 100 µM)	IC50 ([5]; human chymotrypsin)	IC50 ([2]; IC50 Full-length NS3/4A)	inhibition at 100 µM ([6]; 100 µM compound, read-out: Trypsin % Inh at 100 µM)	IC50 ([6]; human trypsin)	SPR binding pattern to NS3/4A ([3]; 0–200 µM compound, single referenced with blank (ethanolamine))
CC1(C)CCc2cc(/C=C(\C#N)C(=O)c3cccc(C(F)(F)F)c3)ccc2O1 [Compound 6]	reversible	7.6 ± 0.6 µM	8.3 ± 1.9 µM	specific binding								
O=C1c2c(O)ccc(O)c2C(=O)c2c(NCCNCCO)ccc(NCCNCCO)c21 [Compound 4, mitoxantrone, reference compound]					25 min	25.4 min	0%	> 100 µM	3.1 ± 0.1 µM	22%	> 100 µM	non-specific binding patterns
